In patent US11866420B2, “Hydrochloride salt forms of a sulfonamide structured kinase inhibitor” (Aurigene Oncology Limited, priority 2018, dated 2024):
Where a name gives a salt, the structure may show the parent alone.

What was measured:
[1] = Stability of the crystalline forms in different water activity conditions (slurry experiments); format: physicochemical; conditions: for Water activity conditions under which the crystalline form is favoured: water/methanol slurries with HCl, room temperature, 3 days; for Resulting crystalline form: HCl added
From the text: Stability of the crystalline forms in different water activity conditions was studied in slurry experiments where crystalline forms 1 and 3 were stirred for 3 days at room temperature in mixtures of water and methanol in the presence of HCl to maintain acidic conditions.

[2] = Thermogravimetric analysis (TGA), onset of disproportionation; format: physicochemical; conditions: for Onset temperature of disproportionation: TGA with head space mass spectroscopy, start of rapid evaporation of Cl ion
Description: The TGA thermograms for the crystalline forms 1, 3, 5 and 8 were collected on TGA equipment (TA Instruments). The gases recovered during each run were analyzed by head space mass spectroscopy (Agilent GS system). The measurement allowed to register the temperature at which rapid evaporation of Cl ion (disproportionation) started.
The onset temperature of disproportionation for crystalline forms 1, 3, 5 and 8 was determined based on TGA measurements.

Water solubility = format: physicochemical; conditions: physiological pH range
[3] = Bioavailability after oral administration; format: in vivo
[4] = Hygroscopicity (Dynamic Vapour Sorption); format: physicochemical; conditions: between 20%-90% RH, T=25° C., DVS mass change
Description: The hygroscopicity of the crystalline forms 1, 3, 5 and 8 was evaluated using DVS-1 Dynamic Vapour Sorption equipment (Surface Measurement Systems Ltd, London, UK). The amount of 5-10 mg of each crystalline form was equilibrated at 20% RH. The mass change (%) was recorded at 30%, 40%, 50%, 60%, 70%, 80% and 90% RH at T=25° C. The equilibration condition at each point was dm/dt≤0.0003.

[5] = Long-term stability of forms 3 and 8 at different storage conditions; format: physicochemical
Description: Long-term stability of crystalline forms 3 and 8 at different storage conditions was studied. The conditions were a) 25° C./RH 60% in a closed vessel, b) 40° C./RH 75% in a closed vessel, c) 40° C./RH 75% in an open vessel and d) 25° C./RH 100% in an open vessel.

Compound: Cn1cc(-c2ccc3c(c2)ncn3-c2cc(NS(=O)(=O)C3CC3)cc(-c3ccc(F)cc3F)c2)cn1 [Form 5, N-(2′,4′-difluoro-5-(5-(1-methyl-1H-pyrazol-4-yl)-1H-benzo[d]imidazol-1-yl)-[1,1′-biphenyl]-3-yl)cyclopropanesulfonamide hydrochloride]
- Water activity conditions under which the crystalline form is favoured ([1]; listed as crystalline form 5, hydrochloride): about 0.9
- Onset temperature of disproportionation ([2]; listed as 5, hydrochloride): 145 °C

Compound: Cn1cc(-c2ccc3c(c2)ncn3-c2cc(NS(=O)(=O)C3CC3)cc(-c3ccc(F)cc3F)c2)cn1 [Compound (I), N-(2′,4′-difluoro-5-(5-(1-methyl-1H-pyrazol-4-yl)-1H-benzo[d]imidazol-1-yl)-[1,1′-biphenyl]-3-yl)cyclopropanesulfonamide]
- Solubility in water (Water solubility): practically insoluble
- Bioavailability after oral administration [3]: very low

Compound: Cn1cc(-c2ccc3c(c2)ncn3-c2cc(NS(=O)(=O)C3CC3)cc(-c3ccc(F)cc3F)c2)cn1 [Form 1, N-(2′,4′-difluoro-5-(5-(1-methyl-1H-pyrazol-4-yl)-1H-benzo[d]imidazol-1-yl)-[1,1′-biphenyl]-3-yl)cyclopropanesulfonamide hydrochloride]
- Resulting crystalline form ([1]; 16% H2O in MeOH, water activity 0.44, slurry 3 days at room temperature): Form 3 + Form 8
- Resulting crystalline form ([1]; 26.6% H2O in MeOH, water activity 0.59, slurry 3 days at room temperature): Form 3 + Form 8
- Resulting crystalline form ([1]; 45.2% H2O in MeOH, water activity 0.75, slurry 3 days at room temperature): Form 8
- Resulting crystalline form ([1]; 71.5% H2O in MeOH, water activity 0.88, slurry 3 days at room temperature): Form 5
- Hygroscopicity ([4]; hydrochloride): particularly low hygroscopicity
- Onset temperature of disproportionation ([2]; listed as 1, hydrochloride): 148 °C

Compound: Cn1cc(-c2ccc3c(c2)ncn3-c2cc(NS(=O)(=O)C3CC3)cc(-c3ccc(F)cc3F)c2)cn1 [Form 8, N-(2′,4′-difluoro-5-(5-(1-methyl-1H-pyrazol-4-yl)-1H-benzo[d]imidazol-1-yl)-[1,1′-biphenyl]-3-yl)cyclopropanesulfonamide hydrochloride]
- Long-term stability: stable up to ([5]; 25° C./RH 60% closed vessel, listed as Crystalline form 8, hydrochloride): ≥ 36 months
- Long-term stability: stable up to ([5]; 25° C./RH 100% open vessel): ≥ 2 months
- Long-term stability: stable up to ([5]; 40° C./RH 75% closed vessel, listed as Crystalline form 8, hydrochloride): ≥ 6 months
- Long-term stability: stable up to ([5]; 40° C./RH 75% open vessel): ≥ 1 month
- Stability at storage conditions (overall) ([5]; all storage conditions (25° C./RH 60%, 40° C./RH 75% closed and open, 25° C./RH 100% open)): good stability
- Hygroscopicity ([4]; listed as form 8, hydrochloride): practically non-hygroscopic
- Onset temperature of disproportionation ([2]; listed as 8, hydrochloride): 187 °C
- Thermal stability against disproportionation ([2]; TGA, compared among crystalline forms 1, 3, 5 and 8): highest thermal stability

Compound: Cn1cc(-c2ccc3c(c2)ncn3-c2cc(NS(=O)(=O)C3CC3)cc(-c3ccc(F)cc3F)c2)cn1 [Form 3, N-(2′,4′-difluoro-5-(5-(1-methyl-1H-pyrazol-4-yl)-1H-benzo[d]imidazol-1-yl)-[1,1′-biphenyl]-3-yl)cyclopropanesulfonamide hydrochloride]
- Resulting crystalline form ([1]; 4.7% H2O in MeOH, water activity 0.17, slurry 3 days at room temperature): Form 3
- Resulting crystalline form ([1]; 10% H2O in MeOH, water activity 0.31, slurry 3 days at room temperature): Form 3
- Resulting crystalline form ([1]; MeOH, water activity 0, slurry stirred 3 days at room temperature): Form 3
- Water activity conditions under which the crystalline form is favoured ([1]; listed as crystalline form 3, hydrochloride): ambient to about 0.3
- Long-term stability: stable up to ([5]; 25° C./RH 60% closed vessel, listed as Crystalline form 3, hydrochloride): Stable up to 36 months
- Long-term stability: time after which form changed ([5]; 25° C./RH 100% open vessel): 1 week
- Long-term stability: change of crystalline form ([5]; 25° C./RH 100% open vessel, hydrochloride): 5
- Long-term stability: change of crystalline form ([5]; 25° C./RH 100% open vessel, listed as Crystalline form 3, hydrochloride): Change to form 5 after
- Long-term stability: stable up to ([5]; 40° C./RH 75% closed vessel, listed as Crystalline form 3, hydrochloride): Stable up to 12 months
- Long-term stability: time after which form changed ([5]; 40° C./RH 75% open vessel): 1 days
- Long-term stability: change of crystalline form ([5]; 40° C./RH 75% open vessel, hydrochloride): changes to form 8
- Long-term stability: change of crystalline form ([5]; 40° C./RH 75% open vessel, listed as Crystalline form 3, hydrochloride): Change to form 8 after
- Onset temperature of disproportionation ([2]; listed as 3, hydrochloride): 171 °C
